# Data reported in US7566733B2, “Benzimidazole derivatives useful as selective androgen receptor modulators (sarms)” (priority 2004, dated 2009).
# Test system: castrated male Sprague Dawley rats
# Experiment: Ventral Prostate and Seminal Vesicle Weight In Vivo Assay; also: key: active: the non weight adjusted prostate weight was ≦40 mg or the % Inhibition prostate weight, body weight adjusted was ≧40%@2 mg/day dosage; inactive: did not meet the specified criteria defined above
# Details: inhibition of testosterone-enhanced prostate weight; immature castrated rats, once daily for five days, usually orally 40 mg/kg, with testosterone propionate 2 mg/kg s.c.
row,Structure (SMILES),Activity
1,"CC(O)(CC#N)c1nc2cc(Cl)c(Cl)cc2[nH]1 (centres unmarked) [Compound 7, 3-(5,6-dichloro-1H-benzoimidazol-2-yl)-3-hydroxy-butyronitrile]",active
2,"CC/C(Cn1c(CC(F)(F)F)nc2cc(Cl)c(Cl)cc21)=N/O [Compound 144, 1-[5,6-Dichloro-2-(2,2,2-trifluoro-ethyl)-benzoimidazol-1-yl]-butan-2-one Oxime]",active
3,"FC(F)(F)Cc1nc2cc(Cl)c(Cl)cc2n1Cc1ccc(OCc2ccccc2)cc1 [Compound 146, 1-(4-Benzyloxy-benzyl)-5,6-dichloro-2-(2,2,2-trifluoro-ethyl)-1H-benzoimidazole]",active
4,"COc1ccc(Cn2c(CC(F)(F)F)nc3cc(Cl)c(Cl)cc32)cc1 [Compound 147, 5,6-Dichloro-1-(4-methoxy-benzyl)-2-(2,2,2-trifluoro-ethyl)-1H-benzoimidazole]",active
5,"CCC(O)Cn1c(CC(F)(F)F)nc2cc(Cl)c(Cl)cc21 (centres unmarked) [Compound 148, 1-[5,6-Dichloro-2-(2,2,2-trifluoro-ethyl)-benzoimidazol-1-yl]-butan-2-ol]",active
6,"FC(F)(F)Cc1nc2cc(Cl)c(Cl)cc2n1Cc1ccc(Br)cc1 [Compound 149, 1-(4-Bromo-benzyl)-5,6-dichloro-2-(2,2,2-trifluoro-ethyl)-1H-benzoimidazole]",active
7,"CCOC(=O)c1ccc(Cn2c(CC(F)(F)F)nc3cc(Cl)c(Cl)cc32)cc1 [Compound 150, 4-[5,6-Dichloro-2-(2,2,2-trifluoro-ethyl)-benzoimidazol-1-ylmethyl]-benzoic Acid Ethyl Ester]",active
8,"FC(F)(F)Cc1nc2cc(Cl)c(Cl)cc2n1Cc1ccccc1Br [Compound 151, 1-(2-Bromo-benzyl)-5,6-dichloro-2-(2,2,2-trifluoro-ethyl)-1H-benzoimidazole]",active
9,"FC(c1nc2cc(Cl)c(Cl)cc2[nH]1)C(F)(F)F (centres unmarked) [Compound 152, 5,6-Dichloro-2-(1,2,22-tetrafluoro-ethyl)-1H-benzoimidazole]",active
10,"O=Cc1ccc(Cn2c(CC(F)(F)F)nc3cc(Cl)c(Cl)cc32)cc1 [Compound 153, 4-[5,6-Dichloro-2-(trifluoro-ethyl)-benzoimidazol-1-ylmethyl]-benzaldehyde]",inactive
11,"FC(F)(F)C(F)(F)c1nc2cc(Cl)c(Cl)cc2[nH]1 [Compound 154, 5,6-Dichloro-2-(pentafluoroethyl)-1H-benzoimidazole]",inactive
12,"O=[N+]([O-])c1cc2nc(C(O)C(F)(F)F)[nH]c2cc1[N+](=O)[O-] (centres unmarked) [Compound 155, 1-(5,6-Dinitro-1H-benzoimidazol-2-yl-)2,2,2-trifluoro-ethanol]",inactive
13,"OC(c1nc2cc(Cl)ccc2[nH]1)C(F)(F)F (centres unmarked) [Compound 156, 1-(5-1H-benzoimidazol-2-yl-)2,2,2-trifluoro-ethanol]",inactive
14,"COc1cc2nc(C(O)C(F)(F)F)[nH]c2cc1OC (centres unmarked) [Compound 157, 1-(5,6-Dimethoxy-1H-benzoimidazol-2-yl-)2,2,2-trifluoro-ethanol]",inactive
15,"O=C(c1nc2cc(Cl)c(F)cc2[nH]1)C(F)(F)F [Compound 159, 1-(5-Chloro-6-fluoro-1H-benzoimidazol-2-yl-)2,2,2-trifluoro-ethanone]",active
16,"Cc1cc2[nH]c(C(=O)C(F)(F)F)nc2cc1Cl [Compound 160, 1-(5-Chloro-6-methyl-1H-benzoimidazol-2-yl-)2,2,2-trifluoro-ethanone]",active

# Test system: castrated male Sprague Dawley rats
# Experiment: Ventral Prostate and Levator Ani Weight In Vivo Assay
# Parameters: key: active: greater than or equal to 25% stimulation of levator ani at 30 mg/kg
# Details: mature castrated rats, once daily for 14 days, oral gavage, 30 mg/kg
# Description: Ventral Prostate and Levator Ani Weight In Vivo Assay
# Mature (150 to 200 g) castrated male Sprague Dawley rats (Charles River) were treated once daily for 14 days with test compound (usually administered by oral gavage at up to the desired dosage, up to 30 mg/kg in a volume of 1 mL, in 30% cyclodextrin or 0.5% methylcellulose vehicle), or with testosterone propionate (administered subcutaneously by injection at the nape of the neck at 5 mg/kg, in a volume of 0.1 mL in sesame oil), or with vehicle (1 mL of 30% cyclodextrin or 0.5% methylcellulose, given orally). On the fifteenth day, the rats were euthanized by asphyxiation in carbon dioxide. Ventral prostates and levator ani muscles were removed and their wet weights determined.
# Test compound activity was determined as the percent stimulation of tissue weight, with the vehicle-treated control group set to zero percent and the testosterone alone-treated control group set to 100%. A compound was designated as “active” if it produced greater than or equal to 25% stimulation of levator ani at 30 mg/kg.
row,Structure (SMILES),Activity (percent stimulation of levator ani weight)
1,"CC(O)(CC#N)c1nc2cc(Cl)c(Cl)cc2[nH]1 (centres unmarked) [Compound 7, 3-(5,6-dichloro-1H-benzoimidazol-2-yl)-3-hydroxy-butyronitrile]",active
